Test results as given in ChEMBL document CHEMBL3885881, “DrugMatrix”.

Species on record: Rattus norvegicus
Assay: DrugMatrix - Regimen: Daily Repeat
Assay type: toxicity, organism-based, Sprague-Dawley
Set-up: regimen Daily Repeat, gender Male, age 6-8 weeks
Details: in vivo, po, route oral GAVAGE, vehicle 100 % WATER; for ABSOLUTE BASOPHIL / ABSOLUTE EOSINOPHIL / ABSOLUTE LYMPHOCYTE / ABSOLUTE MONOCYTE / ABSOLUTE SEGMENTED NEUTROPHIL / BASOPHIL / EOSINOPHIL / ERYTHROCYTE COUNT / HEMATOCRIT / HEMOGLOBIN / LEUKOCYTE COUNT / LYMPHOCYTE / MEAN CORPUSCULAR HEMOGLOBIN / MEAN CORPUSCULAR HEMOGLOBIN CONCENTRATION / MONOCYTE / NEUTROPHIL / NUCLEATED RED BLOOD CELLS / PLATELET COUNT: tissue Blood; for ALANINE AMINOTRANSFERASE / ALBUMIN / ALKALINE PHOSPHATASE / ASPARTATE AMINOTRANSFERASE / BLOOD UREA NITROGEN / CARBON DIOXIDE / CHLORIDE / CREATINE PHOSPHOKINASE / CREATININE / GLUCOSE / LACTATE DEHYDROGENASE / LIPASE / PHOSPHORUS / POTASSIUM / SODIUM / TOTAL BILIRUBIN / TOTAL PROTEIN / URIC ACID / CHOLESTEROL: tissue Plasma
[1] = 35 mg/kg, 120 h, dose level Low, time 5 day
[2] = 1300 mg/kg, 72 h, dose level High, time 3 day
[3] = 1300 mg/kg, 120 h, dose level High, time 5 day

SMILES: Nc1ccn([C@@H]2CS[C@H](CO)O2)c(=O)n1 [LAMIVUDINE]
- ABSOLUTE BASOPHIL [1]: 0 CELLS/uL
- ABSOLUTE EOSINOPHIL [1]: 0 CELLS/uL
- ABSOLUTE LYMPHOCYTE [1]: 6530 CELLS/uL
- ABSOLUTE MONOCYTE [1]: 98.67 CELLS/uL
- ABSOLUTE SEGMENTED NEUTROPHIL [1]: 638 CELLS/uL
- BASOPHIL [1]: 0%
- EOSINOPHIL [1]: 0%
- ERYTHROCYTE COUNT [1]: 5.57 x10E6/uL
- HEMATOCRIT [1]: 34.73%
- HEMOGLOBIN [1]: 13.6 G/DL
- LEUKOCYTE COUNT [1]: 7.27 x10E3/uL
- LYMPHOCYTE [1]: 89.67%
- MEAN CORPUSCULAR HEMOGLOBIN [1]: 24.43 pg
- MEAN CORPUSCULAR HEMOGLOBIN CONCENTRATION [1]: 39.2 G/DL
- MONOCYTE [1]: 1.33%
- NEUTROPHIL [1]: 9%
- NUCLEATED RED BLOOD CELLS [1]: 0.33 /100WBC
- PLATELET COUNT [1]: 1079.33 x10E3/uL
- ALANINE AMINOTRANSFERASE [1]: 45.33 u/L
- ALBUMIN [1]: 4.1 G/DL
- ALKALINE PHOSPHATASE [1]: 359.67 u/L
- ASPARTATE AMINOTRANSFERASE [1]: 82.67 u/L
- BLOOD UREA NITROGEN [1]: 16.67 mg/dL
- CARBON DIOXIDE [1]: 31.33 mmol/L
- CHLORIDE [1]: 100.33 MEQ/L
- CREATINE PHOSPHOKINASE [1]: 391.67 u/L
- CREATININE [1]: 0.16 mg/dL
- GLUCOSE [1]: 152 mg/dL
- LACTATE DEHYDROGENASE [1]: 141.33 u/L
- LIPASE [1]: 8.33 u/L
- PHOSPHORUS [1]: 11.47 mg/dL
- POTASSIUM [1]: 5.48 MEQ/L
- SODIUM [1]: 144.47 MEQ/L
- TOTAL BILIRUBIN [1]: 0.2 mg/dL
- TOTAL PROTEIN [1]: 6.13 G/DL
- URIC ACID [1]: 0.6 mg/dL
- ABSOLUTE BASOPHIL [2]: 0 CELLS/uL
- ABSOLUTE EOSINOPHIL [2]: 0 CELLS/uL
- ABSOLUTE LYMPHOCYTE [2]: 11276.67 CELLS/uL
- ABSOLUTE MONOCYTE [2]: 81 CELLS/uL
- ABSOLUTE SEGMENTED NEUTROPHIL [2]: 842.33 CELLS/uL
- BASOPHIL [2]: 0%
- EOSINOPHIL [2]: 0%
- ERYTHROCYTE COUNT [2]: 5.54 x10E6/uL
- HEMATOCRIT [2]: 34.33%
- HEMOGLOBIN [2]: 13.53 G/DL
- LEUKOCYTE COUNT [2]: 12.2 x10E3/uL
- LYMPHOCYTE [2]: 92.33%
- MEAN CORPUSCULAR HEMOGLOBIN [2]: 24.43 pg
- MEAN CORPUSCULAR HEMOGLOBIN CONCENTRATION [2]: 39.4 G/DL
- MONOCYTE [2]: 0.67%
- NEUTROPHIL [2]: 7%
- NUCLEATED RED BLOOD CELLS [2]: 0.33 /100WBC
- PLATELET COUNT [2]: 1155.33 x10E3/uL
- ALANINE AMINOTRANSFERASE [2]: 45.67 u/L
- ALBUMIN [2]: 4 G/DL
- ALKALINE PHOSPHATASE [2]: 373.67 u/L
- ASPARTATE AMINOTRANSFERASE [2]: 80 u/L
- BLOOD UREA NITROGEN [2]: 10.67 mg/dL
- CARBON DIOXIDE [2]: 27 mmol/L
- CHLORIDE [2]: 102.33 MEQ/L
- CHOLESTEROL [2]: 78.67 mg/dL
- CREATINE PHOSPHOKINASE [2]: 337 u/L
- CREATININE [2]: 0.17 mg/dL
- GLUCOSE [2]: 141 mg/dL
- LACTATE DEHYDROGENASE [2]: 297.67 u/L
- LIPASE [2]: 9.67 u/L
- PHOSPHORUS [2]: 11.83 mg/dL
- POTASSIUM [2]: 6.19 MEQ/L
- SODIUM [2]: 143.47 MEQ/L
- TOTAL BILIRUBIN [2]: 0.13 mg/dL
- TOTAL PROTEIN [2]: 5.8 G/DL
- URIC ACID [2]: 1.57 mg/dL
- ABSOLUTE BASOPHIL [3]: 0 CELLS/uL
- ABSOLUTE EOSINOPHIL [3]: 61 CELLS/uL
- ABSOLUTE LYMPHOCYTE [3]: 14479 CELLS/uL
- ABSOLUTE MONOCYTE [3]: 224.33 CELLS/uL
- ABSOLUTE SEGMENTED NEUTROPHIL [3]: 1569 CELLS/uL
- BASOPHIL [3]: 0%
- EOSINOPHIL [3]: 0.33%
- ERYTHROCYTE COUNT [3]: 5.68 x10E6/uL
- HEMATOCRIT [3]: 36.2%
- HEMOGLOBIN [3]: 13.93 G/DL
- LEUKOCYTE COUNT [3]: 16.33 x10E3/uL
- LYMPHOCYTE [3]: 88.67%
- MEAN CORPUSCULAR HEMOGLOBIN [3]: 24.5 pg
- MEAN CORPUSCULAR HEMOGLOBIN CONCENTRATION [3]: 38.5 G/DL
- MONOCYTE [3]: 1.33%
- NEUTROPHIL [3]: 9.67%
- NUCLEATED RED BLOOD CELLS [3]: 0 /100WBC
- PLATELET COUNT [3]: 1204.33 x10E3/uL
- ALANINE AMINOTRANSFERASE [3]: 50 u/L
- ALBUMIN [3]: 3.9 G/DL
- ALKALINE PHOSPHATASE [3]: 303.67 u/L
- ASPARTATE AMINOTRANSFERASE [3]: 84.33 u/L
- BLOOD UREA NITROGEN [3]: 15 mg/dL
- CARBON DIOXIDE [3]: 24.33 mmol/L
- CHLORIDE [3]: 102 MEQ/L
- CHOLESTEROL [3]: 70 mg/dL
- CREATINE PHOSPHOKINASE [3]: 295.33 u/L
- CREATININE [3]: 0.2 mg/dL
- GLUCOSE [3]: 162.67 mg/dL
- LACTATE DEHYDROGENASE [3]: 239 u/L
- LIPASE [3]: 11 u/L
- PHOSPHORUS [3]: 11.9 mg/dL
- POTASSIUM [3]: 6.04 MEQ/L
- SODIUM [3]: 143.87 MEQ/L
- TOTAL BILIRUBIN [3]: 0.17 mg/dL
- TOTAL PROTEIN [3]: 5.73 G/DL
- URIC ACID [3]: 1.53 mg/dL
